Measured values taken from patent US20160166572A1, “BENEFICIAL EFFECTS OF Lp-PLA2 INHIBITORS IN TREATMENT OF DIABETIC RETINOPATHY AND AGE-RELATED MACULAR DEGENERATION” (Rowan University, priority 2014, published 2016).

Columns and labels:
[1] = test system: ganglion cells in the GCL; assay: Extravasated IgG in retina (anti-swine IgG IHC) as evidence of BRB compromise, DMHC pigs; assay type: in vivo, pig; settings: Darapladib 10 mg/kg/d orally, 24 weeks
Protocol: Briefly, after induction of diabetes by a single injection of Streptozotocin, animals were fed a high cholesterol diet. After a month of DMHC induction and acclimation, animals were randomly segregated to untreated DMHC and Darapladib-treated DMHC groups. Darapladib-treated pigs received 10 mg/kg/d of Darapladib orally. Three of the pigs were spared from DMHC induction and served as age-matched, non-DMHC normal controls. Twenty four weeks after acclimation, animals were euthanized and their brains and eyes were immediately removed. Brains were divided anteroposteriorly into anterior, middle and posterior regions. For each of these brain regions, 2-3 tissue blocks were generated for routine tissue fixation (10% formalin) or freezing and histological processing. The anterior cortical region comprised of anterior ⅔ of frontal lobe and anterior ⅓ of temporal lobe. […] Extravasated IgG was detected using biotinylated anti-swine IgG antibody (Vector laboratories, Inc., Catalogue # BA-9020; dilution 1:100). […] Slides were examined and photographed with a Nikon FXA microscope, and digital images were recorded using a Nikon DXM1200F digital camera and analyzed using MATLAB (MathWorks, Mass., USA) and NIS-elements software (Nikon, Melville, N.Y.). […] The percentage of IgG-positive ganglion cells relative to total ganglion cells in the GCL was calculated. […]

claudin5 = assay: Claudin5 gene expression in cerebral cortex (RT-PCR, beta-actin reference), DMHC pigs; assay type: in vivo, pig; settings: Darapladib 10 mg/kg/d orally, 24 weeks, rank among treatment groups, FIG. 8A
Protocol: Briefly, after induction of diabetes by a single injection of Streptozotocin, animals were fed a high cholesterol diet. After a month of DMHC induction and acclimation, animals were randomly segregated to untreated DMHC and Darapladib-treated DMHC groups. Darapladib-treated pigs received 10 mg/kg/d of Darapladib orally. Three of the pigs were spared from DMHC induction and served as age-matched, non-DMHC normal controls. Twenty four weeks after acclimation, animals were euthanized and their brains and eyes were immediately removed. Brains were divided anteroposteriorly into anterior, middle and posterior regions. […]
Relative quantification of claudin5 and occludin gene expression was carried out using the reporter dye SYBR green and Applied Biosystems 7500 real time polymerase chain reaction (RT-PCR) system. […] Relative quantification of the claudin5 and occludin gene expression was conducted using beta actin (β-actin), a house keeping gene, as a standard. The amplification profiles of all samples were analyzed using Applied Biosystems software. […]
Changes in claudin 5 and occludin gene expression in response to DMHC and Darapladib treatment were assessed in the middle brain region only of the pig cerebral cortex by real-time polymerase chain reaction (RT-PCR) using beta-actin as a reference (FIG. 8).

SMILES: CCN(CC)CCN(Cc1ccc(-c2ccc(C(F)(F)F)cc2)cc1)C(=O)Cn1c(SCc2ccc(F)cc2)nc(=O)c2c1CCC2 [Darapladib]
- plasma and IgG influx into retinal layers [1]: curtailed plasma and IgG influx into retinal layers
- percentage of IgG-positive ganglion cells relative to total ganglion cells in the GCL ([1]; rank among treatment groups, FIG. 4D): followed by untreated controls and then the DMHC-Darapladib group
- claudin5 gene expression, middle brain region of cerebral cortex (claudin5): highest claudin5 and occludin levels
